From paper PMC11971462, “Generation and validation of a novel multitarget small molecule in glioblastoma” (Cell Death & Disease, 2025)
Several values for one entry are separate records, joined by “and”; a condition that tells them apart may be missing. Equal values may be shown once.

How the values were obtained:
recombinant hBChE = biological target: T1, recombinant hBChE (Homo sapiens, UniProt P06276); assay: BChE inhibition and kinetics, Ellman's colorimetric method; assay type: biochemical
T1 construct: purchased Sigma-Aldrich
Description: Similarly, Ellman’s colorimetric method was used to study the inhibitory capacity of the compound on ChEs. Enzyme solution containing either recombinant hAChE (Sigma-Aldrich) at 0.5 U/mL or hBChE (Sigma-Aldrich) at 0.25 U/mL was incubated with inhibitor solution containing 10 µM of DDI199 or reference compound and 0.3 mM of DTNB (Sigma-Aldrich) for 20 minutes at 37 °C. […] In addition, kinetic of enzyme inhibition was also studied by repeating the same protocol and using five different concentrations of the substrate and four different concentrations of the inhibitor. Results were represented in a Lineweaver-Burk plot using GraphPad Prism software, and the constant of inhibition (Ki) was estimated from the point at which the line cuts the x-axis at the secondary plot.

GNS166 cells [1] = assay: Cell cycle analysis by flow cytometry; assay type: cell-based, human; details: for Cell subpopulation in Sub G1: non-treated 1.9%; for Cell subpopulation in G2/M phase: non-treated 25%
Description: Cells were harvested using accutase and washed with PBS. 1·10^6 cells were fixed with 70% cold ethanol at −20 °C for at least 24 h, and incubated with 0.5% Triton X-100 and 25 µg/mL RNase A in PBS for 30 min at room temperature. Then, DNA was stained with […] propidium iodide for 15 min and samples were analyzed using a CytoFLEX flow cytometer (Beckman Coulter Co.).

U87-MG tumor cells = assay: Re-injection (regrowth) of cells from treated tumors; assay type: in vivo, athymic nude-Foxn1nu mice
Description: (§1) For tumor growth experiments, 5 × 10^5 U87-MG cells were subcutaneously injected into two bottom flanks of athymic nude-Foxn1^nu mice, and once tumors reached a size of 25-50 mm^3, mice were sorted into groups taking into account gender and tumor size. Afterwards, mice were intratumorally treated with vehicle, SAHA 100 µM or DDI199 100 µM following a schedule of 5 days on and 2 days off. In combined treatment, mice were treated intraperitoneally with 0.5 mg/Kg of TMZ for 5 days and intratumorally following a schedule of 5 days on and 2 days off with vehicle, SAHA 100 µM or DDI199 100 µM. After 4 weeks of treatment, some mice were kept for washout experiment, while the rest were sacrificed and tumors were extracted for immunohistochemistry and to disaggregate for reinjection and oncosphere formation studies. For reinjection assays, 1.5 × 10^5 cells were subcutaneously injected and tumor size was periodically measured. Once tumors reached end-point criteria, they were extracted for immunohistochemical analysis. An external caliper was used for tumor size measurement and the tumor volume was estimated using the formula V = L · W^2 · 0.5 (where L is tumor length and W is the tumor width).

[2] = system: gastric, pancreatic and lung cancer cells; assay: MTT cell viability, summary for other tumor cells; assay type: cell-based; details: Homo sapiens, 72 h, summary statement
Description: MTT assay was used to study cell viability. For that, cells were seeded at a density of 1.5 × 10^3 cells/well in 96-well plates, incubated overnight and then treated with increasing concentrations of DDI199. After 72 h of treatment, MTT absorbance was measured at 570 nm. GraphPad Prism software was used to analyze results and calculate IC50 values.

GNS166 cells [3] = assay: EdU cell proliferation assay; assay type: cell-based, human; details: GNS166, 5 µM
Description: Click-iT™ EdU Cell Proliferation Kit for Imaging (Invitrogen) was used according to the manufacturer’s instructions. Briefly, GNS166 cells were seeded and maintained overnight before DDI199 treatment. After 48 h, fresh culture medium containing 10 μM of EdU was added for 24 h and then, cells were fixed with 4% paraformaldehyde. Axio Observer 7 epifluorescence microscope was used to take pictures, which were later quantified in Qupath.

HDAC1 = HDAC1 (Homo sapiens, UniProt Q13547); assay: HDAC1 enzyme inhibition; assay type: biochemical; details: read-out: HDAC inhibition IC50 HDAC1
Description: The inhibitory capacity of DDI199 on HDACs was studied as previously described. The capacity of DDI199 to inhibit MAOs was studied by mimicking the reaction occurring in cells. Briefly, inhibitor solution containing 10 µM of DDI199 or reference compound was incubated for 30 minutes at 37 °C together with the enzyme solution, containing either recombinant hMAO-A (Sigma-Aldrich) at 0.5 U/mL or hMAO-B (Sigma-Aldrich) at 1.5 U/mL. 200 U/mL horseradish peroxidase (Sigma-Aldrich), 20 mM Ampliflu Red (Sigma-Aldrich) and 100 mM tyramine hydrochloride (Sigma-Aldrich) were then added and absorbance at 570 nm was measured every 5 minutes for 30 minutes. Percentage of inhibition was estimated from these values.

U87-MG cells = assay: Subcutaneous U87-MG tumor growth, single treatment; assay type: in vivo, athymic nude-Foxn1nu mice; details: day 34, 100 µM intratumoral
Description: as §1

GNS179 cells = assay: Immunofluorescence of pH3, Cleaved Caspase 3; assay type: cell-based, human; details: for pH3-positive cells: control […]
Description: Immunofluorescence assays were performed following standard procedures. Cells were seeded at a density of 2 × 10^4 cells/well in 8-well immunofluorescence chambers (LabTek Thermo) and incubated overnight before treating with increasing concentrations of DDI199. After 48 h, cells were fixed with 4% PFA. Primary antibodies against phosphohistone H3 (pH3) (ab14955, abcam), Cleaved Caspase 3 (AF385, R&D Systems), Ki67 (ab15580, abcam) and PARP1 (ab32064, abcam) were used. Secondary antibodies were Alexa Fluor anti-mouse (A21422, Invitrogen) and Alexa Fluor anti-rabbit (A31572, Invitrogen), and chromatin was stained with DAPI (D9541, Sigma-Aldrich). Axio Observer 7 epifluorescence microscope was used to take pictures, which were later quantified in Qupath.

T1 sequence (P06276 29-602): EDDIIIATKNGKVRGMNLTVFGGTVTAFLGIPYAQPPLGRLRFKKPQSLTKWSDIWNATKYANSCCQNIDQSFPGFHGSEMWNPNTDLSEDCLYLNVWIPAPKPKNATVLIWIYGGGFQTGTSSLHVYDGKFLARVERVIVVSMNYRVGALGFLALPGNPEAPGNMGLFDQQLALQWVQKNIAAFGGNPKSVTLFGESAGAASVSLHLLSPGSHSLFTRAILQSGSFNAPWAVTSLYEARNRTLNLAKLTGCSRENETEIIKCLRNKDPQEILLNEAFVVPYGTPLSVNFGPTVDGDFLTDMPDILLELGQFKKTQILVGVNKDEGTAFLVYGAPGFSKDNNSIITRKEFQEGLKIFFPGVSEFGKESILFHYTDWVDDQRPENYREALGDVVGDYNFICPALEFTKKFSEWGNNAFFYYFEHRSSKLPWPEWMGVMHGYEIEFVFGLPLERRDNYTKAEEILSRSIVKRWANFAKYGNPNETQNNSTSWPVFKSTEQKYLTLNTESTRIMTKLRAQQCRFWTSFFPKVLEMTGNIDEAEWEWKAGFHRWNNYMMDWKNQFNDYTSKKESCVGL
Chain of HDAC1 (Q13547 whole entry): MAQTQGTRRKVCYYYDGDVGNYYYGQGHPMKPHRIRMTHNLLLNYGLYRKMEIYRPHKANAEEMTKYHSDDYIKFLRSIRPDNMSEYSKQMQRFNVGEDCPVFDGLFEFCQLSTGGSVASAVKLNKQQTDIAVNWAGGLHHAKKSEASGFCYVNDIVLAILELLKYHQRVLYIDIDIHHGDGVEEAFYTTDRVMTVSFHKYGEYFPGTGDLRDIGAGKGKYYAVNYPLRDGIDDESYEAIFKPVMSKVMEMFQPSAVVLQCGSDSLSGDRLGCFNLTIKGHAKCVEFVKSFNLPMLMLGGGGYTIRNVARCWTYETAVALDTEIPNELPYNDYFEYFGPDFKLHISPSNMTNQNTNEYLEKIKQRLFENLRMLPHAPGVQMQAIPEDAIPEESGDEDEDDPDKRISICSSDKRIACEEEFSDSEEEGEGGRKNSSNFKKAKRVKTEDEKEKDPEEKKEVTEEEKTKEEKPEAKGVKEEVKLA

Structure (SMILES): C#CCN(Cc1cc2cc(OCCCN3CCCCC3)ccc2n1S(=O)(=O)c1ccccc1)C(=O)CCCCCCC(=O)NO [DDI199]
- IC50 (recombinant hBChE): 2540 nM
- inhibition at 10 µM (recombinant hBChE; 10 µM compound, read-out: BChE inhibition percentage): 75%
- BChE type of inhibition (recombinant hBChE; Lineweaver-Burk plot): mixed inhibition
- Ki (recombinant hBChE; from Lineweaver-Burk and secondary plots): 870 nM
- Cell subpopulation in Sub G1 (GNS166 cells [1]; GNS166, 5 µM): 7.2%
- Cell subpopulation in G2/M phase (GNS166 cells [1]; GNS166, 5 µM): 35%
- Cell subpopulation in Sub G1 (GNS166 cells [1]; GNS166, 10 µM): 11.9%
- Cell subpopulation in G2/M phase (GNS166 cells [1]; GNS166, 10 µM): 32%
- Tumors reforming after re-injection, combined with TMZ (U87-MG tumor cells; cells from TMZ + DDI199 treated tumors): 1 tumor out of 3
- Reduction of final tumor weight after re-injection versus control (U87-MG tumor cells; cells from treated tumors): ~70%
- Reduction of tumor volume after re-injection versus control (U87-MG tumor cells; cells from treated tumors): 60%
- Mean tumor volume after re-injection (U87-MG tumor cells; cells from treated tumors, controls over 500 mm^3): 200 mm^3
- IC50 [2]: < 3000 nM
- EdU positive cells (GNS166 cells [3]): almost blocking completely
- IC50 (HDAC1): 377 nM and 370 nM
- Reduction in tumor growth versus controls (U87-MG cells): ~50%
- Tumor weight at end-point (U87-MG cells): significantly lower than the controls and also of SAHA
- Mean final tumor volume (U87-MG cells; 5 days on 2 days off, controls 800 mm^3): 465 mm^3
- pH3-positive cells (GNS179 cells; GNS179, 1 µM): 2.4%
- pH3-positive cells (GNS179 cells; GNS179, 5 µM): 0.8%
- pH3-positive cells (GNS179 cells; GNS179, 10 µM): 0.11%
- Cleaved Caspase-3-positive cells (GNS179 cells; GNS179, 1, 5 and 10 µM): increase
